Test systems include CAKI-1 renal; LOX IMVI melanoma; COLO 205 colon; HCT-15 colon; A498 renal; HL-60(TB) leukemia; SR leukemia; MDA-MB-231 breast; DU-145 prostate.
Experiment in all cases: NCI anticancer screen, dose series, 48 h

“And” between values parts separate entries of the source, which are not always exact repeats. Equal values may be shown once.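 In this assay, cells in 96-well plates receive the compound at five concentrations for 48 hours. Endpoints are linearly interpolated between the surrounding concentrations. GI50: concentration for 50% inhibition of growth. TGI denotes the concentration required for complete inhibition of growth.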

In the case of `O=c1[nH]nc2ccccc2c1Cl`, the TGI with CAKI-1 renal is 12 µM; in the assay with LOX IMVI melanoma, 37.5 µM; in the assay on COLO 205 colon it was 23.4 µM; in the assay on HCT-15 colon, 25.3 µM; in the assay with A498 renal, 33.2 µM.

Consider `CN(C)CCNC(=O)c1ccc(C(=O)NCCN(C)C)c2nc3ccccc3cc12`, for which the TGI in the assay with CAKI-1 renal is 9.09 µM; in the assay with LOX IMVI melanoma, 3.15 µM; with COLO 205 colon, 2.39 µM; in the assay with HL-60(TB) leukemia it was 9.5 µM; in the assay on SR leukemia it was 2.49 µM; with HCT-15 colon, 16.9 µM. For the same compound, the TGI in the assay with A498 renal is 3.93 µM.

For the compound `Nc1ccn(CCO)c(=O)n1`, the TGI in the assay with CAKI-1 renal, in the assay with LOX IMVI melanoma, in the assay on COLO 205 colon, in the assay on HL-60(TB) leukemia, in the assay on SR leukemia and in the assay on HCT-15 colon was greater than 100 µM in each case. Also, in the assay on A498 renal, the TGI is greater than 100 µM.

As to `CC(=O)Nc1ccc(/C=N\N2C(=O)c3ccccc3C2=O)cc1`, the TGI in the assay on CAKI-1 renal, in the assay on LOX IMVI melanoma, in the assay with HL-60(TB) leukemia, in the assay with SR leukemia, with HCT-15 colon and with A498 renal was greater than 100 µM each time.

Take `OCC(O)C(OC1OC(CO)C(O)C(O)C1O)c1nn(-c2ccccc2)c2nc3cc(Cl)c(Cl)cc3cc12` (stereo unspecified): the TGI in the assay with LOX IMVI melanoma, with SR leukemia, in the assay with HCT-15 colon and in the assay with A498 renal was greater than 100 µM throughout.

As for `O=c1c2cccc3cccc(c4oc5c6cccc7cccc(c(=O)c5c14)c76)c32`, the TGI in the assay on CAKI-1 renal was 45.9 µM; with LOX IMVI melanoma it was 17.2 µM; with COLO 205 colon, 15.6 µM; with HL-60(TB) leukemia, 20.7 µM; in the assay with SR leukemia, 29.9 µM; in the assay on HCT-15 colon, 16.9 µM. In the assay on A498 renal, this compound yielded a TGI greater than 100 µM.

In the case of `CCCCCCCCC(=O)N(C)C1C2CN3CCC(O2)C13` (stereo unspecified), the TGI in the assay on CAKI-1 renal, with LOX IMVI melanoma, with COLO 205 colon, in the assay on HL-60(TB) leukemia, in the assay on HCT-15 colon and with A498 renal was greater than 100 µM in each case.

Turning to `N#C/C(=C1\NN=C(N)C(c2ccc(Cl)cc2)=C1O)c1ccc(Cl)cc1`, the TGI in the assay with CAKI-1 renal, in the assay with LOX IMVI melanoma, in the assay on COLO 205 colon, in the assay with HL-60(TB) leukemia, in the assay with SR leukemia and with A498 renal was greater than 100 µM throughout.

Take `Cc1cc(C)c2c(c1)Nc1ccccc1P2c1ccccc1` (stereo unspecified): the TGI in the assay on CAKI-1 renal is 98.1 µM; in the assay with LOX IMVI melanoma, greater than 100 µM; with COLO 205 colon it was greater than 100 µM; with HL-60(TB) leukemia, 59.6 µM; with HCT-15 colon, greater than 100 µM.

With `COc1ccc(C2=NN(C(=O)COc3ccc(Cl)cc3)C(O)(c3ccc(Cl)cc3)C2)cc1` (stereo unspecified), the TGI in the assay on CAKI-1 renal, with LOX IMVI melanoma, in the assay with COLO 205 colon, in the assay on HL-60(TB) leukemia and in the assay with HCT-15 colon was greater than 100 µM throughout.

With `CCOC(=O)C1=C(NNC(=O)Cc2ccccc2)CSC1=Nc1ccccc1`, the TGI in the assay on CAKI-1 renal, in the assay with LOX IMVI melanoma, in the assay on COLO 205 colon, in the assay on HL-60(TB) leukemia, with SR leukemia and with HCT-15 colon was greater than 100 µM each time. In the assay with A498 renal, this compound registered a TGI greater than 100 µM.

`Fc1cccc2cc3ccc4cccc5ccc(c12)c3c45`: the TGI with CAKI-1 renal, in the assay with LOX IMVI melanoma, in the assay with COLO 205 colon, with HL-60(TB) leukemia and with A498 renal was greater than 100 µM each time.

On to `Cc1cccc(NC(=O)c2cc3cc(N=Nc4ccccc4Cl)ccc3oc2=O)c1`, for which the TGI was greater than 100 µM in the assay with CAKI-1 renal; 27.4 µM in the assay on LOX IMVI melanoma; greater than 100 µM in the assay on COLO 205 colon; greater than 100 µM in the assay on HL-60(TB) leukemia; greater than 100 µM in the assay on HCT-15 colon; greater than 100 µM in the assay with A498 renal.

Turning to `COC(C(=O)C(O)C(C)O)C1Cc2cc3cc(OC4CC(OC(C)=O)C(OC5CC(O)C(OC)C(C)O5)C(C)O4)cc(O)c3c(O)c2C(=O)C1OC1CC(OC2CC(OC3CC(C)(O)C(OC(=O)C(C)C)C(C)O3)C(O)C(C)O2)C(O)C(C)O1` (stereo unspecified), the TGI with MDA-MB-231 breast is 0.551 µM; with DU-145 prostate it was 0.569 µM; in the assay on SR leukemia, 0.385 µM; in the assay on HCT-15 colon, 22.4 µM and 34.5 µM. Besides, the GI50 is 0.455 µM in the assay on HCT-15 colon; 0.154 µM and 0.0248 µM in the assay on A498 renal.

As for `Cc1ccc(NC(=O)c2cc3ccccc3c(N=Nc3ccccc3O)c2O)c(C)c1`, the TGI in the assay with CAKI-1 renal came out at 11.4 µM; with MDA-MB-231 breast, 8.77 µM; with COLO 205 colon it was 11.5 µM; in the assay on HL-60(TB) leukemia, 4.09 µM; in the assay with SR leukemia, 3.53 µM; in the assay with HCT-15 colon it was 11.1 µM.

For `CC1CC2C(=O)N(c3ccccc3)C(=O)C2c2c1c1ccccc1n2Cc1ccccc1` (stereo unspecified), the TGI with CAKI-1 renal, in the assay on LOX IMVI melanoma, with COLO 205 colon, in the assay with HL-60(TB) leukemia, in the assay with SR leukemia and in the assay with HCT-15 colon was greater than 100 µM throughout.

For `NNC(=O)CCC(=O)Nc1cc(Cl)c(Cl)cc1Cl`, the TGI in the assay on CAKI-1 renal, with LOX IMVI melanoma, in the assay on COLO 205 colon, with HL-60(TB) leukemia, in the assay on SR leukemia and in the assay on HCT-15 colon was greater than 100 µM each time. The TGI in the assay on A498 renal is greater than 100 µM.

As to `CC(=O)NCCSC(=O)c1ccccc1`, the TGI in the assay with CAKI-1 renal came to 0.239 µM; in the assay with LOX IMVI melanoma it was 0.306 µM; with MDA-MB-231 breast it was 7.71 µM; with COLO 205 colon, 0.516 µM; in the assay with DU-145 prostate, 2.62 µM; in the assay with HL-60(TB) leukemia, 0.829 µM. The TGI was found to be 0.66 µM in the assay on SR leukemia and 1.04 µM with HCT-15 colon. In addition, the GI50 with HL-60(TB) leukemia was 0.026 µM.

Take `COCC1N=C(c2cc(OC)c(OC)c(OC)c2-c2cc3c(cc2C2OCCCO2)OCO3)O[C@H]1c1ccccc1` (stereo partly specified): the TGI in the assay on CAKI-1 renal, in the assay with LOX IMVI melanoma, in the assay on HL-60(TB) leukemia, in the assay with HCT-15 colon and in the assay on A498 renal was greater than 100 µM throughout.

On to `O=C(O)CCSCCCN1C(=O)c2ccccc2C1=O`, for which the TGI in the assay with COLO 205 colon, in the assay with SR leukemia and in the assay with HCT-15 colon was greater than 100 µM each time.

`O=C(/C=C/c1ccc(Cl)c(Cl)c1)c1ccc(F)cc1`: the TGI with CAKI-1 renal was 60.8 µM; in the assay on COLO 205 colon, 52 µM; with HL-60(TB) leukemia it was 33.6 µM; with HCT-15 colon, 22.7 µM; in the assay on A498 renal it was greater than 100 µM.

As to `O=C1CC(c2ccc3c(c2)OCO3)Nc2cc3c(cc21)OCO3` (stereo unspecified), the GI50 in the assay on CAKI-1 renal is 0.527 µM; in the assay with LOX IMVI melanoma, 0.467 µM; in the assay on COLO 205 colon, 0.282 µM; in the assay on DU-145 prostate it was 0.405 µM; with HL-60(TB) leukemia it was 0.252 µM; in the assay with SR leukemia it was 0.266 µM. For the same compound, the GI50 is 0.432 µM with HCT-15 colon and 0.169 µM with A498 renal. For the same compound, the TGI in the assay with CAKI-1 renal was greater than 100 µM; with LOX IMVI melanoma, 15.3 µM; in the assay with COLO 205 colon, 0.885 µM; in the assay with DU-145 prostate, 14.7 µM; with HL-60(TB) leukemia it was 0.637 µM; with SR leukemia it was 12.4 µM. For the same compound, the TGI in the assay with HCT-15 colon is greater than 100 µM; in the assay with A498 renal it was 0.862 µM.

In the case of `COC(=O)C1C2C=CC(C2)C1(C(=O)OC)S(=O)CC12CCC(CC1O)C2(C)C` (stereo unspecified), the TGI in the assay on CAKI-1 renal was greater than 100 µM; with LOX IMVI melanoma, 40 µM; in the assay with COLO 205 colon, greater than 100 µM; with HL-60(TB) leukemia, greater than 100 µM; in the assay with SR leukemia it was 63.1 µM; in the assay on HCT-15 colon, 37.7 µM. Further, in the assay on A498 renal, the TGI was greater than 100 µM.

Turning to `COc1ccc(C(Cc2cc(OC)c(OC)c(OC)c2)C(=O)O)cc1` (stereo unspecified), the TGI with CAKI-1 renal, in the assay on LOX IMVI melanoma, in the assay on COLO 205 colon, in the assay with HCT-15 colon and in the assay with A498 renal was greater than 100 µM throughout.

For the compound `CS(=O)(=O)OCCn1cnc2nc(NC(=O)c3ccccc3)[nH]c(=O)c21`, the TGI in the assay with CAKI-1 renal, with LOX IMVI melanoma, with COLO 205 colon, in the assay with HL-60(TB) leukemia, with SR leukemia and in the assay with HCT-15 colon was greater than 100 µM throughout. Besides, the TGI in the assay on A498 renal is greater than 100 µM.

Take `Nc1c(Br)c(=O)[nH]c(=O)n1COCCO`: the TGI in the assay on CAKI-1 renal, in the assay with LOX IMVI melanoma, with COLO 205 colon, in the assay on HL-60(TB) leukemia and with SR leukemia was greater than 100 µM in each case.

On to `Cc1ccc(S(=O)(=O)NNC(=O)c2sc(-c3nc(C)c(C(=O)NNS(=O)(=O)c4ccc(C)cc4)s3)nc2C)cc1`, for which the TGI with CAKI-1 renal, in the assay with LOX IMVI melanoma, in the assay with COLO 205 colon, in the assay on HL-60(TB) leukemia, with HCT-15 colon and in the assay with A498 renal was greater than 100 µM each time.

As for `CC(/C(=N/NC(=O)C(N)=O)c1c(Cl)ccc(Cl)c1O)C1(O)C(=O)Nc2ccccc21` (stereo unspecified), the TGI was greater than 100 µM with CAKI-1 renal; greater than 100 µM in the assay on LOX IMVI melanoma; 49.1 µM in the assay on COLO 205 colon; 68 µM in the assay with HL-60(TB) leukemia; greater than 100 µM in the assay with HCT-15 colon; 76.9 µM with A498 renal.

For the compound `CC1CC(c2cccc3c2OCO3)=Nc2ccccc2S1` (stereo unspecified), the TGI with CAKI-1 renal, with LOX IMVI melanoma, with COLO 205 colon, in the assay on HL-60(TB) leukemia, in the assay with HCT-15 colon and with A498 renal was greater than 100 µM each time.
